System: MCF-7 breast cancer cells
Experiment: Microarray gene expression analysis (Agilent whole human genome 4 x 44K; compound vs DMSO, LIMMA log2 fold change)
Type: cell-based
Conditions: cell cycle genes

## Cn1ncc2c(N3CCOCC3)nc(-c3cccc(O)c3)nc21 [ETP-45658]
Gene 10381
  TUBB3 log2FC: -0.638
Gene 10393
  ANAPC10 log2FC: 0.516
Gene 10397
  NDRG1 log2FC: 1.084
Gene 10399
  GNB2L1 log2FC: -0.052
Gene 10419
  PRMT5 log2FC: -0.043
Gene 10459
  MAD2L2 log2FC: -0.088
Gene 10460
  TACC3 log2FC: -0.430
Gene 10488
  CREB3 log2FC: -0.118
Gene 10514
  MYBBP1A log2FC: -0.538
Gene 10519
  CIB1 log2FC: -0.090
Gene 10534
  SSSCA1 log2FC: -0.330
Gene 10540
  DCTN2 log2FC: 0.043
Gene 10592
  SMC2 log2FC: 0.719
Gene 10595
  ERN2 log2FC: -0.829
Gene 10600
  USP16 log2FC: 0.971
Gene 10614
  HEXIM1 log2FC: -0.354
Gene 10615
  SPAG5 log2FC: 0.309
Gene 10617
  STAMBP log2FC: 0.425
Gene 10628
  TXNIP log2FC: 2.131
Gene 10630
  PDPN log2FC: -0.069
Gene 10636
  RGS14 log2FC: 0.556
Gene 10664
  CTCF log2FC: -0.082
Gene 10668
  CGRRF1 log2FC: 0.871
Gene 10669
  CGREF1 log2FC: -0.152
Gene 10713
  USP39 log2FC: 0.041
Gene 10726
  NUDC log2FC: -0.412
Gene 10733
  PLK4 log2FC: 0.611
Gene 10734
  STAG3 log2FC: 0.527
Gene 10735
  STAG2 log2FC: 1.297
Gene 10763
  NES log2FC: -0.458
Gene 10769
  PLK2 log2FC: -0.887
Gene 10783
  NEK6 log2FC: -0.620
Gene 10806
  SDCCAG8 log2FC: 0.654
Gene 10844
  TUBGCP2 log2FC: -0.131
Gene 10859
  LILRB1 log2FC: -0.164
Gene 10869
  USP19 log2FC: 0.174
Gene 10904
  BLCAP log2FC: -0.662
Gene 10907
  TXNL4A log2FC: -0.510
Gene 10910
  SUGT1 log2FC: 0.410
Gene 10912
  GADD45G log2FC: -0.067
Gene 10919
  EHMT2 log2FC: 0.089
Gene 10950
  BTG3 log2FC: -0.035
Gene 10982
  MAPRE2 log2FC: -0.284
Gene 11004
  KIF2C log2FC: 0.489
Gene 11011
  TLK2 log2FC: 0.607
Gene 11021
  RAB35 log2FC: -0.457
Gene 11022
  TDRKH log2FC: 0.089
Gene 11040
  PIM2 log2FC: -0.863
Gene 11065
  UBE2C log2FC: -0.393
Gene 11078
  TRIOBP log2FC: 0.398
Gene 11097
  NUPL2 log2FC: 0.144
Gene 11104
  KATNA1 log2FC: 0.716
Gene 11108
  PRDM4 log2FC: 0.462
Gene 11113
  CIT log2FC: 0.376
Gene 11130
  ZWINT log2FC: -0.088
Gene 11140
  CDC37 log2FC: -0.282
Gene 11178
  LZTS1 log2FC: -0.979
Gene 11180
  WDR6 log2FC: -0.468
Gene 11186
  RASSF1 log2FC: 1.482
Gene 11190
  CEP250 log2FC: -0.206
Gene 11243
  PMF1 log2FC: -0.207
Gene 11258
  DCTN3 log2FC: 0.235
Gene 11334
  TUSC2 log2FC: -0.766
Gene 11339
  OIP5 log2FC: 0.202
Gene 22919
  MAPRE1 log2FC: -0.363
Gene 22924
  MAPRE3 log2FC: 0.034
Gene 22954
  TRIM32 log2FC: -0.374
Gene 22974
  TPX2 log2FC: 0.049
Gene 22994
  AZI1 log2FC: 0.520
Gene 22995
  CEP152 log2FC: 0.685
Gene 23032
  USP33 log2FC: 1.045
Gene 23063
  WAPAL log2FC: 0.789
Gene 23087
  TRIM35 log2FC: 0.473
Gene 23122
  CLASP2 log2FC: 0.610
Gene 23126
  POGZ log2FC: 0.396
Gene 23133
  PHF8 log2FC: -0.483
Gene 23137
  SMC5 log2FC: -0.109
Gene 23194
  FBXL7 log2FC: -0.171
Gene 23198
  PSME4 log2FC: 0.174
Gene 23212
  RRS1 log2FC: -0.840
Gene 23225
  NUP210 log2FC: -0.548
Gene 23236
  PLCB1 log2FC: 1.212
Gene 23246
  BOP1 log2FC: -0.416
Gene 23279
  NUP160 log2FC: -0.451
Gene 23291
  FBXW11 log2FC: -0.357
Gene 23304
  UBR2 log2FC: 0.788
Gene 23326
  USP22 log2FC: 0.274
Gene 23332
  CLASP1 log2FC: -0.307
Gene 23368
  PPP1R13B log2FC: 0.098
Gene 23405
  DICER1 log2FC: -0.887
Gene 23411
  SIRT1 log2FC: 1.263
Gene 23421
  ITGB3BP log2FC: 0.773
Gene 23481
  PES1 log2FC: -0.445
Gene 23503
  ZFYVE26 log2FC: 0.361
Gene 23513
  SCRIB log2FC: -0.165
Gene 23582
  CCNDBP1 log2FC: 0.710
Gene 23607
  CD2AP log2FC: 0.637
Gene 23636
  NUP62 log2FC: -0.576
Gene 23637
  RABGAP1 log2FC: 0.485
Gene 23645
  PPP1R15A log2FC: 1.011
Gene 23649
  POLA2 log2FC: -0.863
Gene 24149
  ZNF318 log2FC: 0.346
Gene 25788
  RAD54B log2FC: 0.549
Gene 25836
  NIPBL log2FC: 0.842
Gene 25896
  INTS7 log2FC: 0.076
Gene 25909
  AHCTF1 log2FC: 0.469
Gene 25942
  SIN3A log2FC: 0.788
Gene 25970
  SH2B1 log2FC: -0.484
Gene 25975
  EGFL6 log2FC: 0.028
Gene 26054
  SENP6 log2FC: 0.596
Gene 26270
  FBXO6 log2FC: 0.322
Gene 26271
  FBXO5 log2FC: 0.498
Gene 26471
  NUPR1 log2FC: 0.023
Gene 26574
  AATF log2FC: -0.362
Gene 26586
  CKAP2 log2FC: 0.829
Gene 26959
  HBP1 log2FC: 3.023
Gene 27030
  MLH3 log2FC: 0.187
Gene 27085
  MTBP log2FC: 0.847
Gene 27134
  TJP3 log2FC: 0.162
Gene 27183
  VPS4A log2FC: -0.366
Gene 27250
  PDCD4 log2FC: 1.281
Gene 27301
  APEX2 log2FC: -0.875
Gene 27338
  UBE2S log2FC: -0.678
Gene 27436
  EML4 log2FC: -0.240
Gene 28227
  PPP2R3B log2FC: -0.106
Gene 28985
  MCTS1 log2FC: -0.243
Gene 28996
  HIPK2 log2FC: -0.166
Gene 29117
  BRD7 log2FC: 0.662
Gene 29127
  RACGAP1 log2FC: 0.627
Gene 29128
  UHRF1 log2FC: -0.406
Gene 29893
  PSMC3IP log2FC: 0.342
Gene 29899
  GPSM2 log2FC: 0.274
Gene 29901
  SAC3D1 log2FC: 0.069
Gene 29935
  RPA4 log2FC: -0.445
Gene 29945
  ANAPC4 log2FC: 0.654
Gene 29950
  SERTAD1 log2FC: -1.280
Gene 50624
  CUZD1 log2FC: 0.419
Gene 50855
  PARD6A log2FC: -0.204
Gene 51053
  GMNN log2FC: 0.163
Gene 51065
  RPS27L log2FC: 0.265
Gene 51085
  MLXIPL log2FC: 0.256
Gene 51119
  SBDS log2FC: 0.607
Gene 51143
  DYNC1LI1 log2FC: 0.709
Gene 51147
  ING4 log2FC: 1.465
Gene 51175
  TUBE1 log2FC: 0.231
Gene 51176
  LEF1 log2FC: -0.842
Gene 51191
  HERC5 log2FC: 0.711
Gene 51203
  NUSAP1 log2FC: 0.849
Gene 51207
  DUSP13 log2FC: -0.060
Gene 51322
  WAC log2FC: 0.945
Gene 51339
  DACT1 log2FC: 0.045
Gene 51343
  FZR1 log2FC: -0.538
Gene 51347
  TAOK3 log2FC: 1.243
Gene 51422
  PRKAG2 log2FC: -0.498
Gene 51429
  SNX9 log2FC: 0.822
Gene 51434
  ANAPC7 log2FC: -0.070
Gene 51451
  LCMT1 log2FC: -0.115

Source: article PMC4303209, “A novel phosphatidylinositol 3-kinase (PI3K) inhibitor directs a potent FOXO-dependent, p53-independent cell cycle arrest phenotype characterized by the differential induction of a subset of FOXO-regulated genes” (Breast Cancer Research : BCR, 2014)
